Assay results reported in patent publication US8436006B2, “2-amino-quinazoline derivatives useful as inhibitors of β-secretase (BACE)” (Jansssen Pharmaceutica N.V., priority 2004, dated 2013).

Target: T1, β-secretase (BACE) (Homo sapiens, UniProt P56817)
T1 construct: purchased Panvera
Test: BACE FS1% Inhibition Assay (Example 160)
Format: biochemical
Experimental: The following reagents were used in this assay: sodium acetate, PEB8000 (Sigma), DMSO, HEPES, FS1 substrate [[…]], β-secretase (BACE) (Panvera), and 96-well plate (HE microplate, Molecular Devices). […] The FS1-substrate stock solution was prepared in DMSO as a 10 mg/mL solution. The FS1-substrate working solution was prepared by diluting the 10 mg/mL stock solution with substrate assay buffer to a final concentration of 300 μg/mL. The β-secretase (BACE) working solution was prepared by diluting a 0.83 mg/mL BACE stock solution with enzyme assay buffer to a final concentration of 4 μg/mL. Test compounds were dissolved in DMSO to 10 mM. […] The screening procedure for this assay was as follows: 15 μL of BACE working solution was pipetted into each well of a 96-well plate. To each well was the pipetted 2 μL of test compound at the selected concentration. Test compound and BACE were then mixed with a pipettor and incubated for 20 min at room temperature. To each well was then added 10 μL of the FS1 substrate working solution. The plates were then incubated for 1 hour at room temperature. […] The procedure for the blank was as follows. 15 μL of assay buffer was pipetted into each well to be used as a blank control. To each well was then added 2 μL of vehicle and 10 μL of FS1-substrate working solution. The plates were then incubated for 1 hour at room temperature. […] The procedure for the positive control was as follows: 15 μL of BACE working solution was pipetted into each well to be used as a positive control. To each well was then pipetted 2 μL of vehicle. Vehicle and BACE were then mixed with a pipettor and incubated for 20 min at room temperature. To each well was then added 10 μL of the FS1 substrate working solution. The plates were then incubated for 1 hour at room temperature. […] For test compounds, % inhibition was determined at each concentration as follows: [formula]

T1 sequence (P56817 46-501): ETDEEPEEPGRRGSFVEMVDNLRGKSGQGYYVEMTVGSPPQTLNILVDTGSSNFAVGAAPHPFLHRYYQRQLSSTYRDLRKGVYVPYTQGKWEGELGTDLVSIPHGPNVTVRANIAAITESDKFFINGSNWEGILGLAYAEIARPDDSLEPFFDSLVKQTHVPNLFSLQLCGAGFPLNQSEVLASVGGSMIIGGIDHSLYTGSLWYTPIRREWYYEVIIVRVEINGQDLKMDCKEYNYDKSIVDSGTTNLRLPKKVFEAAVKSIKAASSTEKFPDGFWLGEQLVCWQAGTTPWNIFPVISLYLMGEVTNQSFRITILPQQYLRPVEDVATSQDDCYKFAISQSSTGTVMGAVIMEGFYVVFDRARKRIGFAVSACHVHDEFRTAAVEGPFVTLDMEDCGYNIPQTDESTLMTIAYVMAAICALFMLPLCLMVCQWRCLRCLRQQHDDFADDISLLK

Row | SMILES | % Inhibition (FS) (0.3 μM test compound, 0.3 µM) [%] | % Inhibition (FS) (1 μM test compound, 1 µM) [%] | % Inhibition (FS) (3 μM test compound, 3 µM) [%] | % Inhibition (FS) (0.3 μM test compound) [%] | % Inhibition (FS) (1 μM test compound) [%] | % Inhibition (FS) (3 μM test compound) [%]
1 | CN(C(=O)CCC(C1CCCCC1)N1Cc2cc(Oc3ccccc3)ccc2N=C1N)C1CCC(O)CC1 (stereo not shown) [Compound 639] | <30 | <30 | 48 | – | – | –
2 | NC1=Nc2ccc(-c3ccccc3)cc2CN1CCNC(=O)CCC(F)(F)F [Compound 684] | – | – | – | 33 | 38 | 78
3 | NC1=Nc2ccc(-c3ccc4ccccc4c3)cc2CN1CCNC(=O)CCC(F)(F)F [Compound 686] | – | – | – | <30 | 73 | 80
4 | CCCCC(CC)C(=O)NCCN1Cc2cc(-c3ccccc3C)ccc2N=C1N (stereo not shown) [Compound 662] | – | – | – | 66 | 97 | –
5 | CC(C)[C@H](CNC(=O)C1CCCCC1)N1Cc2cc(Oc3ccccc3)ccc2N=C1N [Compound 561] | – | – | – | 114 | 118 | 125
6 | CC(C)CCC(=O)NCCN1Cc2cc(-c3ccc4ccccc4c3)ccc2N=C1N [Compound 668] | – | – | – | <30 | <30 | <30
7 | CCCCC(CC)C(=O)NCCN1Cc2cc(-c3ccc4ccccc4c3)ccc2N=C1N (stereo not shown) [Compound 669] | – | – | – | <30 | <30 | 32
8 | NC1=Nc2ccc(-c3ccc4ccccc4c3)cc2CN1CCNC(=O)C1CCC1 [Compound 663] | – | – | – | <30 | <30 | <30

Continued, values first:

Row | % Inhibition (FS) (0.3 μM test compound, 0.3 µM) [%] | % Inhibition (FS) (1 μM test compound, 1 µM) [%] | % Inhibition (FS) (3 μM test compound, 3 µM) [%] | % Inhibition (FS) (0.3 μM test compound) [%] | % Inhibition (FS) (1 μM test compound) [%] | % Inhibition (FS) (3 μM test compound) [%] | SMILES
9 | <30 | 84 | – | – | – | – | CCOC(=O)C1CCC(N(C)C(=O)CCC(C2CCCCC2)N2Cc3cc(Oc4ccccc4)ccc3N=C2N)CC1 (stereo not shown) [Compound 763]
10 | – | – | – | <30 | 62 | – | COC(=O)Cc1cccc(CN(C)C(=O)CCC(C2CCCCC2)N2Cc3cc(Oc4ccccc4)ccc3N=C2N)c1 (stereo not shown) [Compound 775]
11 | – | – | – | 69 | 97 | – | COC(=O)C(COCc1ccccc1)N(C)C(=O)CCC(C1CCCCC1)N1Cc2cc(Oc3ccccc3)ccc2N=C1N (stereo not shown) [Compound 780]
12 | – | – | – | <30 | 44 | 89 | CN(C(=O)CCC(C1CCCCC1)N1Cc2cc(Oc3ccccc3)ccc2N=C1N)C1CCC(C(=O)OCc2ccccc2)CC1 (stereo not shown) [Compound 760]
13 | – | – | – | <30 | <30 | 63 | COc1ccccc1-c1ccc2c(c1)CN(CCNC(=O)C1CCOCC1)C(N)=N2 [Compound 697]
14 | – | – | – | 85 | 104 | 112 | CN(C(=O)CC[C@@H](C1CCOCC1)N1Cc2cc(Oc3ccccc3)ccc2N=C1N)[C@H]1CC[C@H](C(=O)O)CC1 [Compound 746]
15 | – | – | – | 14 | 28 | 61 | CN(C(=O)CCC(C)(C)N1Cc2cc(Oc3ccccc3)ccc2N=C1N)C1CCCCC1 [Compound 738]
16 | – | – | – | <30 | <30 | <30 | NC1=Nc2ccc(C3=CCCCC3)cc2CN1CCNC(=O)C1CCC(C(F)(F)F)CC1 (stereo not shown) [Compound 704]
17 | – | – | – | <30 | 30 | – | COc1ccccc1-c1ccc2c(c1)CN([C@@H](CCC(=O)N(C)Cc1cc(C)no1)C1CCCCC1)C(N)=N2 [Compound 718]
